Converted amounts (≈) assume the structure as drawn.
Tests used:
Bacillaceae = test: Minimum inhibitory concentration (MIC), broth dilution; format: cell-based; conditions: 24 h; strain 1722
Procedure: (§1) Different bacterial species isolated from patients are employed.
(§2) Compounds AB5 and AB6 are dissolved in ethanol (ethyl alcohol 95°, C. Erba) and all the subsequent dilutions performed in distilled water. The chlorhexidine is diluted from the commercial product already dissolved in distilled water.
(§3) The broth dilution is employed to assess MIC values for all strains. Sterile microtiter plates with U bottom with 96 wells are employed. 0.1 Ml of liquid medium (tryptose Roche broth) are put in each well, the plates are kept at -20° and, before use, at room temperature.
(§4) The disinfectant agent is put in the wells of the row 2 at a concentration of 4000 mcg/ml (real 2000 mcg/ml) and then with a 100 µl micro- pipette dilutions are performed from row 2 to row 11.
(§5) The row 1 is the control of the medium and the row 12 is the control for the fertility of the medium itself.
(§6) After having performed the dilutions, 0.01 ml of a 24 hrs bacterial broth culture (previously diluted at 10^-4 for Gram-negative strains and 10-2 for Gram-positive ones) are placed in all wells, from the rows 2 to 12. After the inoculation, the plate is hermetical ly sealed with adhesive transparent band and an hole is done with a needle. The plates are kept at 35° for 24 hours and a macroscopic reading is carried out; in case of non uniform reading, taking place only for chlorhexidine, the cultures from the wells are plated on agar-heart-brain medium (Sclavo) through Dinatech apparatus (head "Inoculum 96") and the reading of the growth is carried out in the following 24 hours.

E.coli = test: as above; format: cell-based; conditions: Escherichia coli, 24 h
Procedure: as §1, §2, §3, §4, §5, §6

Enterobacter = test: as above; format: cell-based; conditions: 24 h, strain 2643
Procedure: as §1, §2, §3, §4, §5, §6

Indole-positive Proteus [1] = test: as above; format: cell-based; conditions: 24 h
Procedure: as §1, §2, §3, §4, §5, §6

Pseudomonas aeruginosa [2] = test: as above; format: cell-based; conditions: 24 h
Procedure: as §1, §2, §3, §4, §5, §6

Salmonella sp. [3] = test: as above; format: cell-based; conditions: 24 h, strain 2482
Procedure: as §1, §2, §3, §4, §5, §6

Serratia marcescens [4] = test: as above; format: cell-based; conditions: 24 h, strain 1814
Procedure: as §1, §2, §3, §4, §5, §6

Staph. aureus [5] = test: as above; format: cell-based; conditions: Staphylococcus aureus, 24 h; strain 2672
Procedure: as §1, §2, §3, §4, §5, §6

E. coli = test: Bactericide activity at different contact times; format: cell-based; set-up: key to Bactericide action (growth / no growth): + = growth; - = no growth; conditions: 100 p.p.m.
Procedure: as §1, §2
(§7) It is assessed through Dinatech apparatus with "Inoculum 96" head.
(§8) Chemical compounds at established concentra tions are placed in amount of 1 ml in the con tainers, the bacterial inoculum is then added in amount of 0.1 ml (24 hrs culture) and at pre-established times (3,5,10,30,60 and 120 mi nutes), through the head, the mixture compound/ disinfectant agent is transferred in solid medium (agar-heart-brain medium). After incubation at 35°C for 24 hours, the reading is carried out. The tests are repeated in presence of human serum at the concentration of 10%.

Indole-positive Proteus [6] = test: Bactericide activity at different contact times; format: cell-based; set-up: key to Bactericide action (growth / no growth): + = growth; - = no growth; conditions: 100 p.p.m.
Procedure: as §1, §2, §7, §8

Serratia marcescens [7] = test: Bactericide activity at different contact times; format: cell-based; set-up: key to Bactericide action (growth / no growth): + = growth; - = no growth; conditions: 100 p.p.m.
Procedure: as §1, §2, §7, §8

Pseudomonas aeruginosa [8] = test: Bactericide activity at different contact times; format: cell-based; set-up: key to Bactericide action (growth / no growth) / Bactericide activity (growth / no growth), serum interference test: + = growth; - = no growth; conditions: 100 p.p.m.
Procedure: as §1, §2, §7, §8

B. subtilis = test: Bactericide activity at different contact times; format: cell-based; set-up: key: + = growth; - = no growth; conditions: 100 p.p.m.
Procedure: as §1, §2, §7, §8

Salmonella sp. [9] = test: Bactericide activity at different contact times; format: cell-based; set-up: key: + = growth; - = no growth; conditions: 100 p.p.m.
Procedure: as §1, §2, §7, §8

Staph. aureus [10] = test: Bactericide activity at different contact times; format: cell-based; set-up: key: + = growth; - = no growth; conditions: 100 p.p.m.
Procedure: as §1, §2, §7, §8

[11] = Toxicity, LD50 by intraperitoneal route; conditions: mouse, in vivo, ip, mice

## NC(=NCl)c1ccccc1 [AB5]
Bacillaceae
  MIC: 15.6 µg/mL (≈ 101 µM)
E.coli; strain 2094
  MIC: 250 µg/mL (≈ 1620 µM)
E.coli; strain 2096
  MIC: 250 µg/mL (≈ 1620 µM)
E.coli; strain 2117
  MIC: 250 µg/mL (≈ 1620 µM)
E.coli; strain 2456
  MIC: 500 µg/mL (≈ 3230 µM)
E.coli; strain 2568
  MIC: 500 µg/mL (≈ 3230 µM)
Enterobacter
  MIC: 250 µg/mL (≈ 1620 µM)
Indole-positive Proteus [1]; strain 2075
  MIC: 250 µg/mL (≈ 1620 µM)
Indole-positive Proteus [1]; strain 2083
  MIC: 125 µg/mL (≈ 809 µM)
Indole-positive Proteus [1]; strain 2105
  MIC: 500 µg/mL (≈ 3230 µM)
Indole-positive Proteus [1]; strain 2410
  MIC: 250 µg/mL (≈ 1620 µM)
Indole-positive Proteus [1]; strain 2447
  MIC: 500 µg/mL (≈ 3230 µM)
Indole-positive Proteus [1]; strain 2674
  MIC: 500 µg/mL (≈ 3230 µM)
Pseudomonas aeruginosa [2]; strain 2084
  MIC: 250 µg/mL (≈ 1620 µM)
Pseudomonas aeruginosa [2]; strain 2458
  MIC: 500 µg/mL (≈ 3230 µM)
Pseudomonas aeruginosa [2]; strain 2488
  MIC: 250 µg/mL (≈ 1620 µM)
Pseudomonas aeruginosa [2]; strain 2508
  MIC: 500 µg/mL (≈ 3230 µM)
Pseudomonas aeruginosa [2]; strain 2509
  MIC: 250 µg/mL (≈ 1620 µM)
Pseudomonas aeruginosa [2]; strain 2670
  MIC: 500 µg/mL (≈ 3230 µM)
Salmonella sp. [3]
  MIC: 250 µg/mL (≈ 1620 µM)
Serratia marcescens [4]
  MIC: 31.2 µg/mL (≈ 202 µM)
Staph. aureus [5]
  MIC: 250 µg/mL (≈ 1620 µM)
E. coli
  contact time for total bactericide activity: ≤ 3 min
E. coli; contact time 3 min
  Bactericide action (growth / no growth): -
E. coli; contact time 5 min
  Bactericide action (growth / no growth): -
E. coli; contact time 10 min
  Bactericide action (growth / no growth): -
E. coli; contact time 30 min
  Bactericide action (growth / no growth): -
E. coli; contact time 60 min
  Bactericide action (growth / no growth): -
E. coli; contact time 120 min
  Bactericide action (growth / no growth): -
Indole-positive Proteus [6]
  contact time for total bactericide activity: 60 to 120 min
Indole-positive Proteus [6]; contact time 3 min
  Bactericide action (growth / no growth): +
Indole-positive Proteus [6]; contact time 5 min
  Bactericide action (growth / no growth): +
Indole-positive Proteus [6]; contact time 10 min
  Bactericide action (growth / no growth): -
Indole-positive Proteus [6]; contact time 30 min
  Bactericide action (growth / no growth): -
Indole-positive Proteus [6]; contact time 60 min
  Bactericide action (growth / no growth): -
Indole-positive Proteus [6]; contact time 120 min
  Bactericide action (growth / no growth): -
Serratia marcescens [7]; contact time 3 min
  Bactericide action (growth / no growth): -
Serratia marcescens [7]; contact time 5 min
  Bactericide action (growth / no growth): -
Serratia marcescens [7]; contact time 10 min
  Bactericide action (growth / no growth): -
Serratia marcescens [7]; contact time 30 min
  Bactericide action (growth / no growth): -
Serratia marcescens [7]; contact time 60 min
  Bactericide action (growth / no growth): -
Serratia marcescens [7]; contact time 120 min
  Bactericide action (growth / no growth): -
Pseudomonas aeruginosa [8]
  contact time for total bactericide activity: 60 to 120 min
Pseudomonas aeruginosa [8]; contact time 3 min
  Bactericide action (growth / no growth): +
Pseudomonas aeruginosa [8]; contact time 5 min
  Bactericide action (growth / no growth): +
Pseudomonas aeruginosa [8]; contact time 10 min
  Bactericide action (growth / no growth): +
Pseudomonas aeruginosa [8]; contact time 30 min
  Bactericide action (growth / no growth): +
Pseudomonas aeruginosa [8]; contact time 60 min
  Bactericide action (growth / no growth): +
Pseudomonas aeruginosa [8]; contact time 120 min
  Bactericide action (growth / no growth): -
B. subtilis; contact time 3 min
  Bactericide action (growth / no growth): -
B. subtilis; contact time 5 min
  Bactericide action (growth / no growth): -
B. subtilis; contact time 10 min
  Bactericide action (growth / no growth): -
B. subtilis; contact time 30 min
  Bactericide action (growth / no growth): -
B. subtilis; contact time 60 min
  Bactericide action (growth / no growth): -
B. subtilis; contact time 120 min
  Bactericide action (growth / no growth): -
Salmonella sp. [9]; contact time 3 min
  Bactericide action (growth / no growth): +
Salmonella sp. [9]; contact time 5 min
  Bactericide action (growth / no growth): +
Salmonella sp. [9]; contact time 10 min
  Bactericide action (growth / no growth): -
Salmonella sp. [9]; contact time 30 min
  Bactericide action (growth / no growth): -
Salmonella sp. [9]; contact time 60 min
  Bactericide action (growth / no growth): -
Salmonella sp. [9]; contact time 120 min
  Bactericide action (growth / no growth): -
Staph. aureus [10]; contact time 3 min
  Bactericide action (growth / no growth): +
Staph. aureus [10]; contact time 5 min
  Bactericide action (growth / no growth): +
Staph. aureus [10]; contact time 10 min
  Bactericide action (growth / no growth): +
Staph. aureus [10]; contact time 30 min
  Bactericide action (growth / no growth): +
Staph. aureus [10]; contact time 60 min
  Bactericide action (growth / no growth): -
Staph. aureus [10]; contact time 120 min
  Bactericide action (growth / no growth): -
[11]
  LD50: 85 mg/kg
